US20230203060A1 (GENFLEET THERAPEUTICS (SHANGHAI) INC., priority 2020, published 2023)
Counter-ions that a name gives are not always drawn. Like-named read-outs stand apart in the source and are kept apart here.

Columns and labels:
[1] = system: KRAS G12C mutant NCI-H358 cells; experiment: Cell proliferation inhibition experiment, 3D spheroid, CellTiter-Glo, NCI-H358; type: cell-based, human; details: read-out: H358 IC50
Method in brief: (§1)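 IC50 values come from four-parameter fits of proliferation inhibition, measured by CellTiter-Glo after 5-day compound exposure. Spheroids of H358 (800 cells) or A549 (400 cells) were formed overnight in 2% FBS medium; DMSO held at 0.1%, doses spaced 3.16-fold.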

[2] = system: A549 cells (KRAS G12S mutant); experiment: Cell proliferation inhibition experiment, 3D spheroid, CellTiter-Glo, A549; type: cell-based, human; details: read-out: A549 IC50
Method in brief: as §1

[3] = Homo sapiens, NCI-H358, 120 h, NCI-H358 (KRAS G12C mutant) 3D spheroid, 5 days with compound, CellTiter-Glo
[4] = Homo sapiens, A549, 120 h, A549 (KRAS G12S mutant) 3D spheroid, 5 days with compound, CellTiter-Glo
[5] = NCI-H358 (KRAS G12C mutant) 3D spheroid, 5 days with compound, CellTiter-Glo
[6] = A549 (KRAS G12S mutant) 3D spheroid, 5 days with compound, CellTiter-Glo

| Compound | IC50 [1, 3] [nM] | IC50 [2, 4] [nM] | other results |
| --- | --- | --- | --- |
| C=CC(=O)N1CCN2C(=O)c3c(N(C)c4c(C)ccnc4C(C)C)nc(-c4c(O)cccc4F)c(Cl)c3OC[C@H]2C1 [Z6, (6aR)-8-acryloyl-4-chloro-3-(2-fluoro-6-hydroxyphenyl)-1-((2-isopropyl-4-methylpyridin-3-yl)(methyl)amino)-6,6a,7,8,9,10-hexahydro-12H-pyrazino[2,1-c]pyrido[3,4-f][1,4]oxazepin-12-one] | 7 | > 30000 |  |
| C=CC(=O)N1CCN2C(=O)c3c(N4CCOC5(CC5)C4)nc(-c4c(O)cccc4F)c(Cl)c3OC[C@H]2C1 [Z63, (6aR)-8-acryloyl-4-chloro-1-(4-oxa-7-azaspiro[2.5]octan-7-yl)-3-(2-fluoro-6-hydroxyphenyl)-6,6a,7,8,9,10-hexahydro-12H-pyrazino[2,1-c]pyrido[3,4-f][1,4]oxazepin-12-one] | 14 | > 1000 |  |
| C=CC(=O)N1CCN2C(=O)c3c(N4CCN(C)C(C)(C)C4)nc(-c4ccccc4F)c(Cl)c3OC[C@H]2C1 [Z463, (R)-8-acryloyl-4-chloro-3-(2-fluorophenyl)-1-(3,3,4-trimethylpiperazin-1-yl)-6,6a,7,8,9,10-hexahydro-12H-pyrazino[2,1-c]pyrido[3,4-f][1,4]oxazepin-12-one, formate] |  |  | IC50 ([1]; Homo sapiens, NCI-H358, 120 h): 39 nM |
| C=CC(=O)N1CCN2C(=O)c3c(N4CCN(CC)C[C@@H]4C)nc(-c4c(O)cccc4F)c(Cl)c3OC[C@H]2C1 [Z236] |  |  | IC50 ([1]; Homo sapiens, NCI-H358, 120 h): 5.8 nM; IC50 ([2]; Homo sapiens, A549, 120 h): 9580 nM |
| C=CC(=O)N1CCN2C(=O)c3c(N4C[C@@H](O)CC4(C)C)nc(-c4c(O)cccc4F)c(Cl)c3OC[C@H]2C1 (single isomer, unassigned) [Z81] | 1 | > 1000 |  |
| C=CC(=O)N1CCN2C(=O)c3c(N4C[C@@H](O)C[C@@H]4C)nc(-c4c(O)cccc4F)c(Cl)c3OC[C@H]2C1 [Z260, (6aR)-8-acryloyl-4-chloro-3-(2-fluoro-6-hydroxyphenyl)-1-((2S,4S)-4-hydroxy-2-methylpyrrolidin-1-yl)-6,6a,7,8,9,10-hexahydro-12H-pyrazino[2,1-c]pyrido[3,4-f][1,4]oxazepin-12-one] | 5 | 27800 |  |
| C=CC(=O)N1CCN2C(=O)c3c(N4CC(N(C)CC(F)F)CC4(C)C)nc(-c4ccccc4F)c(Cl)c3OC[C@H]2C1 (some centres unmarked) [Z659] |  |  | IC50 [1, 5]: 1.8 nM; IC50 [2, 6]: 5460 nM |
| C=CC(=O)N1CCN2C(=O)c3c(NC(C)C)nc(-c4c(O)cccc4F)c(Cl)c3OC[C@H]2C1 [Z75, (6aR)-8-acryloyl-4-chloro-1-(isopropylamino)-3-(2-fluoro-6-hydroxyphenyl)-6,6a,7,8,9,10-hexahydro-12H-pyrazino[2,1-c]pyrido[3,4-f][1,4]oxazepin-12-one] | 29 | > 1000 |  |
| C=CC(=O)N1CCN2C(=O)c3c(N4CC(=O)N(C)CC4C)nc(-c4c(O)cccc4F)c(Cl)c3OC[C@H]2C1 (single isomer, unassigned) [Z221-2] |  |  | IC50 [1, 5]: 16.8 nM |
| C=CC(=O)N1CCN2C(=O)c3c(N4CC(=O)N(C)CC4C)nc(-c4c(O)cccc4F)c(Cl)c3OC[C@H]2C1 (stereo partly drawn) [Z221, (6aR)-8-acryloyl-4-chloro-1-(2,4-dimethyl-5-oxopiperazin-1-yl)-3-(2-fluoro-6-hydroxyphenyl)-6,6a,7,8,9,10-hexahydro-12H-pyrazino[2,1-c]pyrido[3,4-f][1,4]oxazepin-12-one] | 3 | 20100 |  |
| C=CC(=O)N1CCN2C(=O)c3c(N4CC[C@@H]4C)nc(-c4c(O)cccc4F)c(Cl)c3OC[C@H]2C1 [Z68, (6aR)-8-acryloyl-1-((S)-2-methylazetidin-1-yl)-4-chloro-3-(2-fluoro-6-hydroxyphenyl)-6,6a,7,8,9,10-hexahydro-12H-pyrazino[2,1-c]pyrido[3,4-f][1,4]oxazepin-12-one] | 12 | > 5000 |  |
| C=CC(=O)N1CCN2C(=O)c3c(OC4CCN(C)CC4)nc(-c4c(O)cccc4F)c(Cl)c3OC[C@H]2C1 [Z61, (6aR)-8-acryloyl-4-chloro-3-(2-fluoro-6-hydroxyphenyl)-1-((1-methylpiperidin-4-yl)oxy)-6,6a,7,8,9,10-hexahydro-12H-pyrazino[2,1-c]pyrido[3,4-f][1,4]oxazepin-12-one] | 33 | > 30000 |  |
| C=CC(=O)N1CCN2C(=O)c3c(NC(C)(C)C)nc(-c4c(O)cccc4F)c(Cl)c3OC[C@H]2C1 [Z69, (6aR)-8-acryloyl-1-(tert-butylamino)-4-chloro-3-(2-fluoro-6-hydroxyphenyl)-6,6a,7,8,9,10-hexahydro-12H-pyrazino[2,1-c]pyrido[3,4-f][1,4]oxazepin-12-one] | 9 | > 5000 |  |
| C=CC(=O)N1CCN2C(=O)c3c(N4CC(N(C)C5COC5)CC4(C)C)nc(-c4c(O)cccc4F)c(Cl)c3OC[C@H]2C1 (single isomer, unassigned) [Z331-1] |  | 8330 | IC50 [1, 5]: 0.5 nM |
| C=CC(=O)N1CCN2C(=O)c3c(N4CCOC5CC54)nc(-c4c(O)cccc4F)c(Cl)c3OC[C@H]2C1 (stereo partly drawn) [Z76, (6aR)-8-acryloyl-4-chloro-1-(2-oxa-5-azabicyclo[4.1.0]heptan-5-yl)-3-(2-fluoro-6-hydroxyphenyl)-6,6a,7,8,9,10-hexahydro-12H-pyrazino[2,1-c]pyrido[3,4-f][1,4]oxazepin-12-one] | 22 | > 1000 |  |
| C=CC(=O)N1CCN2C(=O)c3c(Nc4c(C)ccnc4C(C)C)nc(-c4c(O)cccc4F)c(Cl)c3OC[C@H]2C1 [Z5, (6aR)-8-acryloyl-4-chloro-3-(2-fluoro-6-hydroxyphenyl)-1-((2-isopropyl-4-methylpyridin-3-yl)amino)-6,6a,7,8,9,10-hexahydro-12H-pyrazino[2,1-c]pyrido[3,4-f][1,4]oxazepin-12-one] | 31 | 4680 |  |
| C=CC(=O)N1CCN2C(=O)c3c(N4CCNC(C)C4C)nc(-c4c(O)cccc4F)c(Cl)c3OC[C@H]2C1 (stereo partly drawn) [Z308, (6aR)-8-acryloyl-4-chloro-1-(2,3-dimethylpiperazin-1-yl)-3-(2-fluoro-6-hydroxyphenyl)-6,6a,7,8,9, 10-hexahydro-12H-pyrazino[2,1-c]pyrido[3,4-f][1,4]oxazepin-12-one] | 30 |  |  |
| C=CC(=O)N1CCN2C(=O)c3c(N4CCN(C)[C@H](C)C4)nc(-c4c(O)cccc4F)c(Cl)c3OC[C@H]2C1 [Z235, (6aR)-8-acryloyl-4-chloro-1-((R)-3,4-dimethylpiperazin-1-yl)-3-(2-fluoro-6-hydroxyphenyl)-6,6a,7,8,9,10-hexahydro-12H-pyrazino[2,1-c]pyrido[3,4-f][1,4]oxazepin-12-one] | 21 | 9480 |  |
| C=CC(=O)N1CCN2C(=O)c3c(N4CC(N5CCOCC5)CC4(C)C)nc(-c4ccccc4F)c(Cl)c3OC[C@H]2C1 (single isomer, unassigned) [Z468-2] |  |  | IC50 [1, 5]: 5 nM; IC50 [2, 6]: 4560 nM |
| C=CC(=O)N1CCN2C(=O)c3c(N4CC(=O)N(C)CC4C)nc(-c4c(O)cccc4F)c(Cl)c3OC[C@H]2C1 (single isomer, unassigned) [Z221-1] |  | > 30000 | IC50 [1, 5]: 2.7 nM |
| C=CC(=O)N1CCN2C(=O)c3c(N4C[C@H](O)C[C@@H]4C)nc(-c4c(O)cccc4F)c(Cl)c3OC[C@H]2C1 [Z259, (6aR)-8-acryloyl-4-chloro-3-(2-fluoro-6-hydroxyphenyl)-1-((2S,4R)-4-hydroxy-2-methylpyrrolidin-1-yl)-6,6a,7,8,9,10-hexahydro-12H-pyrazino[2,1-c]pyrido[3,4-f][1,4]oxazepin-12-one] | 29 |  |  |
